Key:
Assay type in all cases: in vivo
Lolium rigidum [1] = assay: Soil germination (Example 1)
Description: (§1) Compounds were dissolved in DMSO and then in distilled water to get 0.01-2 mg/ml solution with 1% or 2% DMSO. 1% or 2% DMSO solution in water was used as a negative control. As a positive control, 0.1 or 0.2 mg/ml oxyfluorfen (Galigan) solution was used.
(§2) Flowerpots were filled with 30 g of soil, and 4-5 seeds were sowed in each flowerpot. Each treatment contained 3 flowerpots. Each flowerpot was sprayed with 1.5 ml of the dissolved compound. Soil was let dry for about 1 hour at room conditions, and then each flowerpot was sub-irrigated with 40 ml water and incubated under conditions provided below.
(§3) Amaranthus palmeri was incubated at 25° C. for 8 hr in dark, followed by 16 hr at 30° C. in light. Lolium rigidum was incubated at 21° C. for 8 hr in dark, followed by 16 hr at 21° C. in light. Germination was assessed and scored after 4-7 days. Scoring scale: 0—complete germination inhibition, 100—no effect.

Amaranthus palmeri [2] = assay: Soil germination (Example 1); conditions: for Amaranthus palmeri soil germination: score 0 = complete germination inhibition, 100 = no effect
Description: as §1, §2, §3

a variety of plants = assay: Foliar experiment (Example 2), overall statement; conditions: as shown in Table 5
Description: (§4) Compounds were dissolved in DMSO and then in distilled water to get 0.1 or 0.5 mg/ml solution with 2% DMSO. Break-Thru surfactant was added to a final concentration of 0.05%. Negative control—an aqueous solution of 2% DMSO and 0.05% Break-Thru. Positive control—2 mg/ml Glyphosate (Roundup). 1.5 ml of each compound solution were sprayed on the foliage of different plants, which were 6-16 days old at the day of the experiment. Each treatment contained 3 pots. Plants were let dry for about 15 minutes at room conditions, and then incubated at controlled growth chambers. Phytotoxicity was assessed and scored 4-10 days after applications. Scoring scale: 0—complete phytotoxic effect, 100—no effect. [table]

Setaria adhaerens [3] = assay: Soil germination (Example 3); conditions: 0.5 mg/ml; score 0 = complete germination inhibition, 100 = no effect; after 7 days
Description: (§5) Compounds were dissolved in DMSO and then in distilled water to get 0.1 or 0.5 mg/ml solution with 2% DMSO. 2% DMSO solution in water was used as a negative control. No positive control was used in this assay. Flowerpots were filled with 30 g of soil, each treatment contained three flowerpots. Each flowerpot was sprayed with 1.5 ml of the dissolved compound. Soil was let dry for about 1 hour at room conditions, and then each flowerpot was sub-irrigated with 40 ml water and incubated at controlled growth chambers, under conditions provided on table 6. Gemination was assessed and scored after 7 days. Scoring scale: 0—complete germination inhibition, 100—no effect. [table]

Lolium rigidum [4] = assay: Soil germination (Example 3); conditions: 0.5 mg/ml; score 0 = complete germination inhibition, 100 = no effect; after 7 days
Description: as §5

Gossypium hirsutum [5] = assay: Soil germination (Example 3); conditions: 0.5 mg/ml; score 0 = complete germination inhibition, 100 = no effect; after 7 days
Description: as §5

Lactuca sativa [6] = assay: Soil germination (Example 3); conditions: 0.5 mg/ml; score 0 = complete germination inhibition, 100 = no effect; after 7 days
Description: as §5

Brassica napus [7] = assay: Soil germination (Example 3); conditions: 0.5 mg/ml; score 0 = complete germination inhibition, 100 = no effect; after 7 days
Description: as §5

Triticum vulgare [8] = assay: Soil germination (Example 3); conditions: 0.5 mg/ml; score 0 = complete germination inhibition, 100 = no effect; after 7 days
Description: as §5

Amaranthus palmeri [9] = assay: Soil germination (Example 3); conditions: 0.5 mg/ml; score 0 = complete germination inhibition, 100 = no effect; after 7 days
Description: as §5

Sinapis alba [10] = assay: Soil germination (Example 3); conditions: 0.5 mg/ml; score 0 = complete germination inhibition, 100 = no effect; after 7 days
Description: as §5

Solarium nigrum [11] = assay: Soil germination (Example 3); conditions: 0.5 mg/ml; score 0 = complete germination inhibition, 100 = no effect; after 7 days
Description: as §5

Abutilon theophrasti [12] = assay: Soil germination (Example 3); conditions: 0.5 mg/ml; score 0 = complete germination inhibition, 100 = no effect; after 7 days
Description: as §5

Zea mays [13] = assay: Soil germination (Example 3); conditions: 0.5 mg/ml; score 0 = complete germination inhibition, 100 = no effect; after 7 days
Description: as §5

Echinochloa colonum [14] = assay: Soil germination (Example 3); conditions: 0.5 mg/ml; score 0 = complete germination inhibition, 100 = no effect; after 7 days
Description: as §5

Setaria adhaerens [15] = assay: Foliar experiment (Example 2); conditions: 0.5 mg/ml; score 0 = complete phytotoxic effect, 100 = no effect
Description: as §4

Lolium rigidum [16] = assay: Foliar experiment (Example 2); conditions: 0.5 mg/ml; score 0 = complete phytotoxic effect, 100 = no effect
Description: as §4

Gossypium hirsutum [17] = assay: Foliar experiment (Example 2); conditions: 0.5 mg/ml; score 0 = complete phytotoxic effect, 100 = no effect
Description: as §4

Lactuca sativa [18] = assay: Foliar experiment (Example 2); conditions: 0.5 mg/ml; score 0 = complete phytotoxic effect, 100 = no effect
Description: as §4

Brassica napus [19] = assay: Foliar experiment (Example 2); conditions: 0.5 mg/ml; score 0 = complete phytotoxic effect, 100 = no effect
Description: as §4

Triticum vulgare [20] = assay: Foliar experiment (Example 2); conditions: 0.5 mg/ml; score 0 = complete phytotoxic effect, 100 = no effect
Description: as §4

Amaranthus palmeri [21] = assay: Foliar experiment (Example 2); conditions: 0.5 mg/ml; score 0 = complete phytotoxic effect, 100 = no effect; 4-10 days after application
Description: as §4

Sinapis alba [22] = assay: Foliar experiment (Example 2); conditions: 0.5 mg/ml; score 0 = complete phytotoxic effect, 100 = no effect
Description: as §4

Phalaris brachystachys = assay: Foliar experiment (Example 2); conditions: 0.5 mg/ml; score 0 = complete phytotoxic effect, 100 = no effect
Description: as §4

Solarium nigrum [23] = assay: Foliar experiment (Example 2); conditions: 0.5 mg/ml; score 0 = complete phytotoxic effect, 100 = no effect
Description: as §4

Abutilon theophrasti [24] = assay: Foliar experiment (Example 2); conditions: 0.5 mg/ml; score 0 = complete phytotoxic effect, 100 = no effect
Description: as §4

Zea mays [25] = assay: Foliar experiment (Example 2); conditions: 0.5 mg/ml; score 0 = complete phytotoxic effect, 100 = no effect
Description: as §4

Echinochloa colonum [26] = assay: Foliar experiment (Example 2); conditions: 0.5 mg/ml; score 0 = complete phytotoxic effect, 100 = no effect
Description: as §4

Lolium rigidum [27] = assay: Paper germination (Example 1); conditions: 0.1 mg/ml
Description: (§6) Compounds were dissolved in DMSO and then in distilled water to get 0.1 or 0.5 mg/ml solution with 0.5% DMSO.
(§7) 0.5% DMSO solution in water was used as a negative control. As a positive control, 0.1 mg/ml oxyfluorfen (Galigan) solution was used.
(§8) A towel paper was placed in each box as bedding for seeds. Each box was soaked with 6 ml of the solutions on its paper. 13 seeds were placed on the wet paper and the box was sealed and incubated under conditions provided bellow.
Lolium rigidum—first 4 days under dark conditions at 21° C. Afterwards, plants were incubated at 21° C. for 8 hr in dark, followed by 16 hr at 21° C. in light.
(§9) Gemination was assessed and scored after 3-7 days. Scoring scale: 0—complete germination inhibition, 100—no effect.

Amaranthus palmeri [28] = assay: Paper germination (Example 1); conditions: 0.1 mg/ml
Description: as §6, §7, §8
Amaranthus palmeri—first 2 days under dark conditions. Plants were first incubated at 25° C. for 8 hr, then at 30° C. for 16 hr. Afterwards, plants were incubated at 25° C. for 8 hr in dark, followed by 16 hr incubation at 30° C. in light.
as §9

SMILES: CC(Cl)/C=C/C(=O)N(Cc1ccc(Cl)s1)CC(C)C (stereo not shown) [Compound 4]
- Lolium rigidum soil germination (Lolium rigidum [1]; 0.5 mg/ml, score 0 = complete germination inhibition, 100 = no effect): 60
- Lolium rigidum soil germination (Lolium rigidum [1]; 2 mg/ml, score 0 = complete germination inhibition, 100 = no effect): 70
- soil germination of Lolium rigidum, result in words (Lolium rigidum [1]; concentration not given): active
- Amaranthus palmeri soil germination (Amaranthus palmeri [2]; 0.1 mg/ml): 0
- Amaranthus palmeri soil germination (Amaranthus palmeri [2]; 0.25 mg/ml): 0
- Amaranthus palmeri soil germination (Amaranthus palmeri [2]; 0.5 mg/ml): 0
- Amaranthus palmeri soil germination (Amaranthus palmeri [2]; 1 mg/ml): 0
- soil germination of Amaranthus palmeri, result in words (Amaranthus palmeri [2]; concentration not given): active
- Herbicidal activity in a variety of plants, foliar, result in words (a variety of plants): solid herbicidal activity
- Herbicidal activity, soil germination, Setaria adhaerens (Setaria adhaerens [3]): 5
- Herbicidal activity, soil germination, Lolium rigidum (Lolium rigidum [4]): 60
- Herbicidal activity, soil germination, Gossypium hirsutum (Gossypium hirsutum [5]): 90
- Herbicidal activity, soil germination, Lactuca sativa (Lactuca sativa [6]): 70
- Herbicidal activity, soil germination, Brassica napus (Brassica napus [7]): 10
- Herbicidal activity, soil germination, Triticum vulgare (Triticum vulgare [8]): 60
- Herbicidal activity, soil germination, Amaranthus palmeri (Amaranthus palmeri [9]): 0
- Herbicidal activity, soil germination, Sinapis alba (Sinapis alba [10]): 30
- Herbicidal activity, soil germination, Solarium nigrum (Solarium nigrum [11]): 10
- Herbicidal activity, soil germination, Abutilon theophrasti (Abutilon theophrasti [12]): 10
- Herbicidal activity, soil germination, Zea mays (Zea mays [13]): 80
- Herbicidal activity, soil germination, Echinochloa colonum (Echinochloa colonum [14]): 5
- Herbicidal activity, foliar, Setaria adhaerens (Setaria adhaerens [15]): 5
- Herbicidal activity, foliar, Lolium rigidum (Lolium rigidum [16]): 10
- Herbicidal activity, foliar, Gossypium hirsutum (Gossypium hirsutum [17]): 60
- Herbicidal activity, foliar, Lactuca sativa (Lactuca sativa [18]): 0
- Herbicidal activity, foliar, Brassica napus (Brassica napus [19]): 0
- Herbicidal activity, foliar, Triticum vulgare (Triticum vulgare [20]): 100
- Herbicidal activity, foliar, Amaranthus palmeri (Amaranthus palmeri [21]): 0
- Herbicidal activity, foliar, Sinapis alba (Sinapis alba [22]): 10
- Herbicidal activity, foliar, Phalaris brachystachys (Phalaris brachystachys): 5
- Herbicidal activity, foliar, Solarium nigrum (Solarium nigrum [23]): 0
- Herbicidal activity, foliar, Abutilon theophrasti (Abutilon theophrasti [24]): 5
- Herbicidal activity, foliar, Zea mays (Zea mays [25]): 80
- Herbicidal activity, foliar, Echinochloa colonum (Echinochloa colonum [26]): 70

SMILES: CC(Cl)/C=C/C(=O)N(CC(C)C)c1ccc(Cl)cc1F (stereo not shown)
- paper germination reduction of Lolium rigidum (Lolium rigidum [27]): not active
- Lolium rigidum soil germination (Lolium rigidum [1]; 1 mg/ml): unable to reduce soil germination
- paper germination reduction of Amaranthus palmeri (Amaranthus palmeri [28]): not active

Source: patent US20230112484A1, “COMPOSITIONS FOR CROP PROTECTION” (Agrematch Ltd., priority 2020, published 2023)
